Source: patent publication US10660877B2 (BRISTOL-MYERS SQUIBB COMPANY, priority 2016, dated 2020)
Where two headings read alike, the source gives them in different places.

Columns and labels:
human TLR7 = human TLR7 (Homo sapiens (Human), UniProt Q9NYK1); experiment: TLR7 inhibition reporter assay (HEK-Blue cells, SEAP reporter, gardiquimod stimulation); type: cell-based; conditions: HEK-Blue cells overexpressing human TLR7, gardiquimod 7.5 μM
human TLR9 = human TLR9 (Homo sapiens (Human), UniProt Q9NR96); experiment: TLR9 inhibition reporter assay (HEK-Blue cells, SEAP reporter, ODN2006 stimulation);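 note: compounds tested over 0.05 nM to 50 µM, 22 h incubation, inhibition taken as SEAP signal drop from agonist plus DMSO wells toward a known inhibitor control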
human TLR8 = human TLR8 (Homo sapiens (Human), UniProt Q9NR97); experiment: TLR8 inhibition reporter assay (HEK-Blue cells, SEAP reporter, R848 stimulation);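 note: compounds tested from 0.05 nM to 50 µM, 22 h at 37 °C, SEAP measured with HEK-Blue Detection, inhibition relative to agonist plus DMSO versus a known inhibitor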
[1] = TLR9 IC50, HEK-Blue cells overexpressing human TLR9, ODN2006 5 nM
[2] = TLR8 IC50, HEK-Blue cells overexpressing human TLR8, R848 15.9 μM
[3] = read-out: TLR9 IC50, HEK-Blue cells overexpressing human TLR9, ODN2006 5 nM
[4] = read-out: TLR8 IC50, HEK-Blue cells overexpressing human TLR8, R848 15.9 μM

Sequence of human TLR8 (Q9NR97 27-1041): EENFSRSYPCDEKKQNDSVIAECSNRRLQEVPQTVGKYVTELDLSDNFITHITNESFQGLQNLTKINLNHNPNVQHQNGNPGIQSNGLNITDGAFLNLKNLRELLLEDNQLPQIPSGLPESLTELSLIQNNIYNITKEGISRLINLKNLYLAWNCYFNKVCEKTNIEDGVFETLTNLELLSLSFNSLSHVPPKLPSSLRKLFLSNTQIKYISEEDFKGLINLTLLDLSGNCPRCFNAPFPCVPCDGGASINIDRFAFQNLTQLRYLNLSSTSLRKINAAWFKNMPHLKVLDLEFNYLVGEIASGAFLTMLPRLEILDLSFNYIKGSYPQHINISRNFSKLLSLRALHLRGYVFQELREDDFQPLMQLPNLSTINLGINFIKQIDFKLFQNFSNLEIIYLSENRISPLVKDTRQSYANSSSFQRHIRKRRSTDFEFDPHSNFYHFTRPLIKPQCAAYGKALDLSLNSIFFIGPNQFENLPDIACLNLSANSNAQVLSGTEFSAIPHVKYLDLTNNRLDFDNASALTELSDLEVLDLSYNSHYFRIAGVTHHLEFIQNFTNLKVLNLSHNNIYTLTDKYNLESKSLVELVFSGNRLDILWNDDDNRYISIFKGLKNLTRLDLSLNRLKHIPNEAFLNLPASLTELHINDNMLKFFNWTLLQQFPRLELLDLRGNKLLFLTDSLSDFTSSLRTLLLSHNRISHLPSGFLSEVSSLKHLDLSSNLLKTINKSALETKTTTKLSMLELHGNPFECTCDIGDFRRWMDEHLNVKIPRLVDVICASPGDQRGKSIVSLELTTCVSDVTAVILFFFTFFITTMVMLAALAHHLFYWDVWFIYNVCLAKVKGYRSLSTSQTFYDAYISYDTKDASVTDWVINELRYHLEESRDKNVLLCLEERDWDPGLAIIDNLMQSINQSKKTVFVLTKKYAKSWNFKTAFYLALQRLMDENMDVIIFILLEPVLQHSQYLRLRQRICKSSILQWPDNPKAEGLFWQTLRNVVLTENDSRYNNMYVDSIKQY
Sequence of human TLR9 (Q9NR96 26-1032): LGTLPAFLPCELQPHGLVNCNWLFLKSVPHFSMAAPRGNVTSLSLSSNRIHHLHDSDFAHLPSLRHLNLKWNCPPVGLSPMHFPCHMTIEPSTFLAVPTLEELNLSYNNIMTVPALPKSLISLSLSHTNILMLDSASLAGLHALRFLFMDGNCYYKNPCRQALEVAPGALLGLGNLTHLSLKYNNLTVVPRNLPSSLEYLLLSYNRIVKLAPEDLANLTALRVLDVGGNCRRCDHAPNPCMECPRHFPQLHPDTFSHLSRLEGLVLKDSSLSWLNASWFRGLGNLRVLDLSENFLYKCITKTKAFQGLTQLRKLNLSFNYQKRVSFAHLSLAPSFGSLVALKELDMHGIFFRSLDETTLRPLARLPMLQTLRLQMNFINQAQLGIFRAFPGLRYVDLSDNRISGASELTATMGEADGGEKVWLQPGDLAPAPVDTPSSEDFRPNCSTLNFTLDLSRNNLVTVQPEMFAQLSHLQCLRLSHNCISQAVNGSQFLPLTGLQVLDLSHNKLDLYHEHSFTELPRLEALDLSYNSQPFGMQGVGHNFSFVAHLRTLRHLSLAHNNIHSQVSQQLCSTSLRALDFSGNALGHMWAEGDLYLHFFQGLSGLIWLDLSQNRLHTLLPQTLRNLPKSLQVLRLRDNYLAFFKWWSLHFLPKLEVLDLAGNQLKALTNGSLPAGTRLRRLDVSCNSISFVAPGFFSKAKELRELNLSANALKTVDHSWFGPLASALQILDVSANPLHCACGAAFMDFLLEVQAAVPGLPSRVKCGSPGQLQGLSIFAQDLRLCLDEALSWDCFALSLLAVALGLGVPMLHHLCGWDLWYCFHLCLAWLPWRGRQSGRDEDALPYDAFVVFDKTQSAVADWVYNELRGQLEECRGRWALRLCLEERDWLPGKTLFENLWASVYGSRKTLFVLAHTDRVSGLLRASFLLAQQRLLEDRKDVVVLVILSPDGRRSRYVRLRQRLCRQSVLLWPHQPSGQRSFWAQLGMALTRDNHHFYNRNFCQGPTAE
Sequence of human TLR7 (Q9NYK1 27-1049): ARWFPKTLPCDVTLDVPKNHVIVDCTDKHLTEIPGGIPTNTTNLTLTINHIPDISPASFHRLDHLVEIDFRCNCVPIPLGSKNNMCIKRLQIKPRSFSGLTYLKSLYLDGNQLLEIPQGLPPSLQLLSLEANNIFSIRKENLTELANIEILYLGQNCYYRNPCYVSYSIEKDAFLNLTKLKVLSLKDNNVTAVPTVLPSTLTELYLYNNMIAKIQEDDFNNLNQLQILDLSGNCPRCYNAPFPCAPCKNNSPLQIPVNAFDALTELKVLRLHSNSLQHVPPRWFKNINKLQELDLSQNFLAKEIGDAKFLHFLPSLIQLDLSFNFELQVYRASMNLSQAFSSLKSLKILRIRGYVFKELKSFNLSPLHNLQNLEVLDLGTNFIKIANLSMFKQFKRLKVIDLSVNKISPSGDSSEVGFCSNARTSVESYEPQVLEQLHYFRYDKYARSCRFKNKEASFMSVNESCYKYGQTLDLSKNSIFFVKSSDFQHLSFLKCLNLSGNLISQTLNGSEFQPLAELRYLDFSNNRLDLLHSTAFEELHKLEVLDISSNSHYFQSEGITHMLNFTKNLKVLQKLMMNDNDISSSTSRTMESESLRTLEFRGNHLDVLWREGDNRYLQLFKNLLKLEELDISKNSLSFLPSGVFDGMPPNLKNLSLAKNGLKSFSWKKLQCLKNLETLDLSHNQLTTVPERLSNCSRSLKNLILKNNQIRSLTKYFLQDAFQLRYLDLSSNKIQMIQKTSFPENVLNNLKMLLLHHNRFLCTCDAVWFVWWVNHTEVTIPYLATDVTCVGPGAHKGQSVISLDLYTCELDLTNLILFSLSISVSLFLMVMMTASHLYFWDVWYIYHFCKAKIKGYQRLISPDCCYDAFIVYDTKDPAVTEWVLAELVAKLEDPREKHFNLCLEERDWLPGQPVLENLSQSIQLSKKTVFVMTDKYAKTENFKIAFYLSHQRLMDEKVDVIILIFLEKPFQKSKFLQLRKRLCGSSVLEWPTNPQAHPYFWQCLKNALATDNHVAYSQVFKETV

IC50 (human TLR7) [nM] | IC50 (human TLR9; [1]) [nM] | IC50 (human TLR8; [2]) [nM] | IC50 (human TLR9; [3]) [nM] | IC50 (human TLR8; [4]) [nM] | Compound
1.9 | 120 | 1.9 | – | – | CNCCN1CCC(c2ccc3[nH]c(-c4cc(C)nc(C)c4)c(C(C)C)c3c2)CC1 [Example 428, 2-(4-(2-(2,6-dimethylpyridin-4-yl)-3-isopropyl-1H-indol-5-yl)piperidin-1-yl)-N-methylethan-1-amine]
2.2 | – | – | 484 | 5.5 | Cc1cc(-c2[nH]c3ccc(C4CCN(C)CC4)cc3c2C(C)C)cc(C)n1 [Example 429, 2-(2,6-dimethylpyridin-4-yl)-3-isopropyl-5-(1-methylpiperidin-4-yl)-1H-indole]
10.1 | – | – | 369 | 5.9 | COc1ncc(CN2CCC(c3ccc4[nH]c(-c5cc(C)nc(C)c5)c(C(C)C)c4c3)CC2)cn1 [Example 430, 2-(2,6-dimethylpyridin-4-yl)-3-isopropyl-5-(1-((2-methoxypyrimidin-5-yl)methyl)piperidin-4-yl)-1H-indole]
8.4 | – | – | 457 | 6.7 | Cc1cc(-c2[nH]c3ccc(C4CCN(Cc5ccccn5)CC4)cc3c2C(C)C)cc(C)n1 [Example 431, 2-(2,6-dimethylpyridin-4-yl)-3-isopropyl-5-(1-(pyridin-2-ylmethyl)piperidin-4-yl)-1H-indole]
5.6 | – | – | 646 | 8.7 | Cc1cc(-c2[nH]c3ccc(C4CCN(Cc5ccon5)CC4)cc3c2C(C)C)cc(C)n1 [Example 432, 3-((4-(2-(2,6-dimethylpyridin-4-yl)-3-isopropyl-1H-indol-5-yl)piperidin-1-yl)methyl)isoxazole]
4.6 | 234 | 2.4 | – | – | Cc1cc(-c2[nH]c3ccc(C4CCN(Cc5cccnc5)CC4)cc3c2C(C)C)cc(C)n1 [Example 433, 2-(2,6-dimethylpyridin-4-yl)-3-isopropyl-5-(1-(pyridin-3-ylmethyl)piperidin-4-yl)-1H-indole]
35.3 | 755 | 10.5 | – | – | Cc1cc(-c2[nH]c3ccc(C4CCN(Cc5cncnc5)CC4)cc3c2C(C)C)cc(C)n1 [Example 434, 2-(2,6-dimethylpyridin-4-yl)-3-isopropyl-5-(1-(pyrimidin-5-ylmethyl)piperidin-4-yl)-1H-indole]
9.1 | – | – | 609 | 4.2 | Cc1cc(-c2[nH]c3ccc(C4CCN(Cc5ccncc5)CC4)cc3c2C(C)C)cc(C)n1 [Example 435, 2-(2,6-dimethylpyridin-4-yl)-3-isopropyl-5-(1-(pyridin-4-ylmethyl)piperidin-4-yl)-1H-indole]
4.5 | – | – | 94 | 4.7 | CCC(CC)N1CCC(c2ccc3[nH]c(-c4cc(C)nc(C)c4)c(C(C)C)c3c2)CC1 [Example 436, 2-(2,6-dimethylpyridin-4-yl)-3-isopropyl-5-(1-(pentan-3-yl)piperidin-4-yl)-1H-indole]
8.6 | – | – | 267 | 6.7 | Cc1ccc(CN2CCC(c3ccc4[nH]c(-c5cc(C)nc(C)c5)c(C(C)C)c4c3)CC2)cn1 [Example 437, 2-(2,6-dimethylpyridin-4-yl)-3-isopropyl-5-(1-((6-methylpyridin-3-yl)methyl)piperidin-4-yl)-1H-indole]
1.2 | – | – | 69 | 3.1 | Cc1cc(-c2[nH]c3ccc(C4CCN(Cc5cn[nH]c5)CC4)cc3c2C(C)C)cc(C)n1 [Example 438, 5-(1-((1H-pyrazol-4-yl)methyl)piperidin-4-yl)-2-(2,6-dimethylpyridin-4-yl)-3-isopropyl-1H-indole]
7.7 | – | – | 202 | 6.3 | Cc1cc(-c2[nH]c3ccc(C4CCN(Cc5c[nH]nc5C)CC4)cc3c2C(C)C)cc(C)n1 [Example 439, 2-(2,6-dimethylpyridin-4-yl)-3-isopropyl-5-(1-((3-methyl-1H-pyrazol-4-yl)methyl)piperidin-4-yl)-1H-indole]
5.3 | – | – | 210 | 2.3 | Cc1cc(-c2[nH]c3ccc(C4CCN(Cc5cnn(C)c5)CC4)cc3c2C(C)C)cc(C)n1 [Example 440, 2-(2,6-dimethylpyridin-4-yl)-3-isopropyl-5-(1-((1-methyl-1H-pyrazol-4-yl)methyl)piperidin-4-yl)-1H-indole]
1.6 | – | – | 303 | 1.7 | Cc1cc(-c2[nH]c3ccc(C4CCN(Cc5ccn[nH]5)CC4)cc3c2C(C)C)cc(C)n1 [Example 441, 5-(1-((1H-pyrazol-5-yl)methyl)piperidin-4-yl)-2-(2,6-dimethylpyridin-4-yl)-3-isopropyl-1H-indole]
5.3 | – | – | 1190 | 6.7 | Cc1cc(-c2[nH]c3ccc(C4CCN(Cc5cn(C)nn5)CC4)cc3c2C(C)C)cc(C)n1 [Example 442, 2-(2,6-dimethylpyridin-4-yl)-3-isopropyl-5-(1-((1-methyl-1H-1,2,3-triazol-4-yl)methyl)piperidin-4-yl)-1H-indole]
22.9 | – | – | 1680 | 10.9 | Cc1cc(-c2[nH]c3ccc(C4CCN(Cc5cc(C)on5)CC4)cc3c2C(C)C)cc(C)n1 [Example 443, 3-((4-(2-(2,6-dimethylpyridin-4-yl)-3-isopropyl-1H-indol-5-yl)piperidin-1-yl)methyl)-5-methylisoxazole]
3.3 | – | – | 617 | 1.6 | Cc1cc(-c2[nH]c3ccc(C4CCN(Cc5cncs5)CC4)cc3c2C(C)C)cc(C)n1 [Example 444, 5-((4-(2-(2,6-dimethylpyridin-4-yl)-3-isopropyl-1H-indol-5-yl)piperidin-1-yl)methyl)thiazole]
3.6 | – | – | 314 | 0.7 | Cc1cc(-c2[nH]c3ccc(C4CCN(Cc5ccn(C)n5)CC4)cc3c2C(C)C)cc(C)n1 [Example 445, 2-(2,6-dimethylpyridin-4-yl)-3-isopropyl-5-(1-((1-methyl-1H-pyrazol-3-yl)methyl)piperidin-4-yl)-1H-indole]
1.3 | – | – | 292 | 2.6 | Cc1cc(-c2[nH]c3ccc(C4CCN(Cc5c[nH]nn5)CC4)cc3c2C(C)C)cc(C)n1 [Example 446, 5-(1-((1H-1,2,3-triazol-4-yl)methyl)piperidin-4-yl)-2-(2,6-dimethylpyridin-4-yl)-3-isopropyl-1H-indole]
5.4 | – | – | 446 | 7 | COc1cc(OC)nc(CN2CCC(c3ccc4[nH]c(-c5cc(C)nc(C)c5)c(C(C)C)c4c3)CC2)n1 [Example 447, 5-(1-((4,6-dimethoxypyrimidin-2-yl)methyl)piperidin-4-yl)-2-(2,6-dimethylpyridin-4-yl)-3-isopropyl-1H-indole]
51.2 | – | – | 47400 | 55.6 | Cc1cc(-c2[nH]c3ccc(C4CCN(Cc5nnc(C6CC6)o5)CC4)cc3c2C(C)C)cc(C)n1 [Example 448, 2-cyclopropyl-5-((4-(2-(2,6-dimethylpyridin-4-yl)-3-isopropyl-1H-indol-5-yl)piperidin-1-yl)methyl)-1,3,4-oxadiazole]
13.5 | – | – | 2930 | 14.3 | Cc1cc(-c2[nH]c3ccc(C4CCN(Cc5ncco5)CC4)cc3c2C(C)C)cc(C)n1 [Example 449, 2-((4-(2-(2,6-dimethylpyridin-4-yl)-3-isopropyl-1H-indol-5-yl)piperidin-1-yl)methyl)oxazole]
7.8 | – | – | 572 | 7.9 | Cc1cc(-c2[nH]c3ccc(C4CCN(C5CCOCC5)CC4)cc3c2C(C)C)cc(C)n1 [Example 450, 2-(2,6-dimethylpyridin-4-yl)-3-isopropyl-5-(1-(tetrahydro-2H-pyran-4-yl)piperidin-4-yl)-1H-indole]
5.9 | – | – | 1560 | 12.2 | Cc1cc(-c2[nH]c3ccc(C4CCN(Cc5ncn(C)n5)CC4)cc3c2C(C)C)cc(C)n1 [Example 451, 2-(2,6-dimethylpyridin-4-yl)-3-isopropyl-5-(1-((1-methyl-1H-1,2,4-triazol-3-yl)methyl)piperidin-4-yl)-1H-indole]
4.9 | – | – | 1390 | 16.7 | Cc1cc(-c2[nH]c3ccc(C4CCN(C5COC5)CC4)cc3c2C(C)C)cc(C)n1 [Example 452, 2-(2,6-dimethylpyridin-4-yl)-3-isopropyl-5-(1-(oxetan-3-yl)piperidin-4-yl)-1H-indole]
8.5 | – | – | 255 | 6.5 | Cc1cc(-c2[nH]c3ccc(C4CCN(C5CCOC(C)(C)C5)CC4)cc3c2C(C)C)cc(C)n1 (stereo not drawn) [Example 453, 2-(2,6-dimethylpyridin-4-yl)-5-(1-(2,2-dimethyltetrahydro-2H-pyran-4-yl)piperidin-4-yl)-3-isopropyl-1H-indole]
11 | – | – | 358 | 10.2 | Cc1cc(-c2[nH]c3ccc(C4CCN(C5CC(C)OC(C)C5)CC4)cc3c2C(C)C)cc(C)n1 (stereo not drawn) [Example 454, 2-(2,6-dimethylpyridin-4-yl)-5-(1-(2,6-dimethyltetrahydro-2H-pyran-4-yl)piperidin-4-yl)-3-isopropyl-1H-indole]
10.9 | – | – | 390 | 7.6 | Cc1cc(-c2[nH]c3ccc(C4CCN(C5CC(C)OC(C)C5)CC4)cc3c2C(C)C)cc(C)n1 (stereo not drawn) [Example 455, 2-(2,6-dimethylpyridin-4-yl)-5-(1-(2,6-dimethyltetrahydro-2H-pyran-4-yl)piperidin-4-yl)-3-isopropyl-1H-indole]
